Test results taken from the NIST ThermoML archive (doi:10.1021/je800579j).
Numbers after ± are expanded uncertainties.

Experiment: xn = mol fraction of the nth substance listed
Settings: Liquid, Pycnometric method

Cc1cccc(C)c1 [1,3-dimethylbenzene] + C1COCCO1
mass density [kg/m3]
Settings | 288.15 K | 293.15 K | 298.15 K | 303.15 K | 308.15 K | 313.15 K | 318.15 K
x2 = 0 | 868.59 ± 0.67 | 864.31 ± 0.66 | 860.02 ± 0.67 | 855.74 ± 0.67 | 851.45 ± 0.68 | 847.17 ± 0.68 | 842.88 ± 0.69
x2 = 0.0938 | 879.61 ± 0.7 | 875.2 ± 0.68 | 870.79 ± 0.68 | 866.38 ± 0.69 | 861.97 ± 0.7 | 857.56 ± 0.7 | 853.16 ± 0.69
x2 = 0.1532 | 886.95 ± 0.71 | 882.46 ± 0.69 | 877.97 ± 0.7 | 873.48 ± 0.7 | 868.99 ± 0.71 | 864.5 ± 0.71 | 860.01 ± 0.71
x2 = 0.2046 | 893.54 ± 0.72 | 888.98 ± 0.7 | 884.42 ± 0.71 | 879.87 ± 0.71 | 875.32 ± 0.72 | 870.77 ± 0.72 | 866.22 ± 0.71
x2 = 0.2698 | 902.26 ± 0.74 | 897.62 ± 0.71 | 892.98 ± 0.72 | 888.35 ± 0.72 | 883.72 ± 0.73 | 879.09 ± 0.73 | 874.47 ± 0.72
x2 = 0.3374 | 911.76 ± 0.75 | 907.05 ± 0.72 | 902.34 ± 0.73 | 897.63 ± 0.74 | 892.92 ± 0.74 | 888.21 ± 0.75 | 883.5 ± 0.73
x2 = 0.4002 | 921.05 ± 0.77 | 916.26 ± 0.74 | 911.47 ± 0.74 | 906.68 ± 0.75 | 901.9 ± 0.75 | 897.12 ± 0.76 | 892.34 ± 0.74
x2 = 0.4714 | 932.18 ± 0.79 | 927.3 ± 0.75 | 922.42 ± 0.76 | 917.55 ± 0.76 | 912.68 ± 0.77 | 907.81 ± 0.77 | 902.94 ± 0.75
x2 = 0.5487 | 945 ± 0.81 | 940.02 ± 0.77 | 935.04 ± 0.77 | 930.06 ± 0.78 | 925.08 ± 0.78 | 920.1 ± 0.79 | 915.12 ± 0.76
x2 = 0.63 | 959.44 ± 0.84 | 954.33 ± 0.79 | 949.22 ± 0.79 | 944.11 ± 0.8 | 939.01 ± 0.8 | 933.91 ± 0.81 | 928.81 ± 0.77
x2 = 0.7182 | 976.23 ± 0.87 | 970.98 ± 0.81 | 965.73 ± 0.81 | 960.49 ± 0.82 | 955.25 ± 0.82 | 950.01 ± 0.83 | 944.77 ± 0.78
x2 = 0.8035 | 993.74 ± 0.88 | 988.36 ± 0.83 | 982.98 ± 0.83 | 977.6 ± 0.83 | 972.23 ± 0.84 | 966.86 ± 0.84 | 961.5 ± 0.81
x2 = 0.8708 | 1008.47 ± 0.88 | 1002.99 ± 0.84 | 997.51 ± 0.85 | 992.03 ± 0.85 | 986.56 ± 0.85 | 981.09 ± 0.86 | 975.62 ± 0.83
x2 = 0.9324 | 1022.71 ± 0.9 | 1017.15 ± 0.85 | 1011.59 ± 0.86 | 1006.03 ± 0.86 | 1000.48 ± 0.87 | 994.93 ± 0.87 | 989.38 ± 0.84
